Key:
Experiment in all cases: Example B2 herbicidal action, post-emergence, pots in glasshouse, damage score 0-10
Type in all cases: in vivo
Conditions in all cases: application post-emergence, rate 1000 g/ha, evaluated after 13 days
Amaranthus retroflexus = tested on: Amaranthus retroflexus
Summary of the method: (§1)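 Damage was assessed 13 days after a post-emergence spray given to 8-day-old pot seedlings. The spray was an aqueous solution from an acetone/water (50:50) formulation with 0.5% Tween 20. Plants grew in a glasshouse at 24/16° C, 14 h light, 65% humidity, watered twice daily.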

Echinochloa crus-galli = tested on: Echinochloa crus-galli
Summary of the method: as §1

Ipomea hederaceae = tested on: Ipomea hederaceae
Summary of the method: as §1

Setaria faberi = tested on: Setaria faberi
Summary of the method: as §1

Solanum nigrum = tested on: Solanum nigrum
Summary of the method: as §1

Structure (SMILES)	AMARE damage score (10=total damage to plant; 0=no damage to plant) (Amaranthus retroflexus)	ECHCG damage score (10=total damage to plant; 0=no damage to plant) (Echinochloa crus-galli)	IPOHE damage score (10=total damage to plant; 0=no damage to plant) (Ipomea hederaceae)	SETFA damage score (10=total damage to plant; 0=no damage to plant) (Setaria faberi)	SOLNI damage score (10=total damage to plant; 0=no damage to plant) (Solanum nigrum)
CCSC(=O)OC1=C(c2ccccc2I)S(=O)(=O)N(CC(F)F)c2nccnc21 [Compound C82]	10	9	10	8	10
CS(=O)(=O)OC1=C(c2cc(C(F)(F)F)ccc2Cl)S(=O)(=O)N(CC(F)F)c2nccnc21 [Compound C83, methanesulfonic acid 3-(2-chloro-5-trifluoromethyl-phenyl)-1-(2,2-difluoro-ethyl)-2,2-dioxo-1,2-dihydro-2-λ-6-thia-1,5,8-triaza-naphthalen-4-yl ester]	9	7	10	1	10
C#CCN1c2nccnc2C(OC(=O)C(C)C)=C(c2c(Cl)ccc(Cl)c2C(F)(F)F)S1(=O)=O [Compound C84]	9	7	8	7	10
C#CCN1c2nccnc2C(OC(=O)SCC)=C(c2c(Cl)ccc(Cl)c2C(F)(F)F)S1(=O)=O [Compound C85]	7	7	9	6	10
C#CCN1c2nccnc2C(OC(=O)C(C)(C)C)=C(c2c(Cl)ccc(Cl)c2C(F)(F)F)S1(=O)=O [Compound C86]	5	5	4	2	6
CCSC(=O)OC1=C(c2cc(C(F)(F)F)ccc2Cl)S(=O)(=O)N(CC)c2nccnc21 [Compound C87]	7	5	9	0	10
CCSC(=O)OC1=C(c2cc(F)c(Cl)cc2Cl)S(=O)(=O)N(CC(F)F)c2nccnc21 [Compound C88]	9	6	9	4	9
CCSC(=O)OC1=C(c2cc(C(F)(F)F)ccc2Cl)S(=O)(=O)N(C)c2nccnc21 [Compound C89]	7	6	9	1	10
CC(C)C(=O)OC1=C(c2cc(C(F)(F)F)ccc2Cl)S(=O)(=O)N(C)c2nccnc21 [Compound C90]	8	2	9	1	10
CC(C)C(=O)OC1=C(c2cc(C(F)(F)F)ccc2Cl)S(=O)(=O)N(CC(F)F)c2nccnc21 [Compound C91]	9	6	10	3	9
CC(C)C(=O)OC1=C(c2c(Cl)ccc(Cl)c2Cl)S(=O)(=O)N(C)c2nccnc21 [Compound C92]	6	4	9	3	9
CN1c2nccnc2C(OC(=O)C(C)(C)C)=C(c2c(Cl)ccc(Cl)c2Cl)S1(=O)=O [Compound C93]	0	3	6	0	6
CCSC(=O)OC1=C(c2c(Cl)ccc(Cl)c2Cl)S(=O)(=O)N(C)c2nccnc21 [Compound C94]	6	6	9	2	9
CS(=O)(=O)OC1=C(c2cc(C(F)(F)F)ccc2Cl)S(=O)(=O)N(CC(F)F)c2nccnc21 [Compound C95]	7	6	10	3	9
CC#CCN1c2nccnc2C(OC(=O)C(C)(C)C)=C(c2c(Cl)ccc(Cl)c2C(F)(F)F)S1(=O)=O [Compound C96]	0	1	4	0	7
CC#CCN1c2nccnc2C(OC(=O)SCC)=C(c2c(Cl)ccc(Cl)c2C(F)(F)F)S1(=O)=O [Compound C97]	0	1	4	0	6
CCN1c2nccnc2C(OC(=O)C(C)(C)C)=C(c2cccc(Cl)c2Cl)S1(=O)=O [Compound C98]	0	0	0	0	3
CCSC(=O)OC1=C(c2cccc(Cl)c2Cl)S(=O)(=O)N(CC)c2nccnc21 [Compound C99]	3	2	3	1	8
CC(C)(C)C(=O)OC1=C(c2cccc(Cl)c2Cl)S(=O)(=O)N(CC(F)F)c2nccnc21 [Compound C100]	4	2	6	2	9
CCSC(=O)OC1=C(c2cccc(Cl)c2Cl)S(=O)(=O)N(CC(F)F)c2nccnc21 [Compound C101]	4	5	8	2	10
CC(C)C(=O)OC1=C(c2cccc(Cl)c2Cl)S(=O)(=O)N(CC(F)F)c2nccnc21 [Compound C102]	1	0	6	0	7
CCSC(=O)OC1=C(c2c(Cl)ccc(Cl)c2C(F)(F)F)S(=O)(=O)N(CC(F)F)c2nccnc21 [Compound C103]	8	7	6	6	9
CC(C)(C)C(=O)OC1=C(c2ccc(Cl)cc2Cl)S(=O)(=O)N(CC(F)(F)F)c2nccnc21 [Compound C104]	10	6	9	3	10
CCSC(=O)OC1=C(c2c(Cl)cccc2C(F)(F)F)S(=O)(=O)N(CC(F)F)c2nccnc21 [Compound C105]	10	9	8	9	9
O=S1(=O)C(c2ccc(Cl)cc2Cl)=C(OCC(F)(F)F)c2nccnc2N1CC(F)(F)F [Compound C106, 3-(2,4-dichloro-phenyl)-4-(2,2,2-trifluoro-ethoxy)-1-(2,2,2-trifluoro-ethyl)-1H-2-thia-1,5,8-triaza-naphthalene 2,2-dioxide]	6	1	3	0	7
